From US10111853B2, “Compounds, compositions, and methods for the treatment of cancers” (PLACON THERAPEUTICS, INC., priority 2012, dated 2018)

Experiments:
[1] = Drug load (gravimetric, GF-AAS) and encapsulation efficiency of nanoparticles; type: physicochemical; settings: for Max DL, %: maximum drug load; for Max DL, % / Max EE, %: according to Example 11; for Max EE, %: maximum encapsulation
Protocol: The polymer composition was varied by the ratio of the PLA or PLGA polymer to PLA-PEG or PLGA-PEG copolymer, as well as the PLA molecular weight (25-109 kDa). […] The oil phase was then slowly added to the continuously stirred aqueous phase containing an emulsifier (such as polysorbate 80 a.k.a. Tween® 80) at 10/90% or 20/80% v/v oil/water ratio and a coarse emulsion was prepared using a rotor-stator homogenizer or an ultrasound bath. The course emulsion was then processed through a high-pressure homogenizer (operated at 5,000 or 10,000 psi) for N=2 or 4 passes to form a nanoemulsion. In process (2) the polymers and the drug were dissolved in an organic solvent miscible with water (such as acetone) and added slowly to a continuously stirred aqueous phase with or without a stabilizer (such as polysorbate 80). In both processes (1) and (2) the nanoemulsion formed was quenched (by 5- or 10-fold dilution with cold (0-5° C.) or room temperature deionized water) to remove the major portion of the organic solvent resulting in hardening of the emulsion droplets and formation of a nanoparticle suspension, which was then concentrated and purified with deionized water containing or not surfactants using tangential flow filtration (500 kDa MWCO, mPES membranes).
The actual drug load was determined gravimetrically by transferring 1 mL of the nanoparticle suspension to a 4 mL glass vial and drying under vacuum on a Rotavapor® to determine the amount of total remaining solids. The drug content was then determined by reconstituting the dried sample in an organic solvent (such as N′N′-dimethylformamide) and measuring the total amount of platinum using graphite furnace atomic adsorption spectroscopy (GF-AAS). Encapsulation efficiency was calculated as the ratio between the actual and the theoretical drug load. The yield was determined based on the ratio between the encapsulated and used compound amounts. In-vitro release was studied by incubating the nanoparticle suspension in phosphate buffered saline (PBS) containing a solubilizer such as 1% hydroxypropyl beta cyclodextrin for 24 h at 37° C. mixed continuously in a water shaking bath. Samples were taken at different time points and spun with an ultracentrifuge at 1,000,000×g to separate the nanoparticles from the dissolution medium. The supernatant was then analyzed using GF-AAS or HPLC to determine the active content as a function of time.

[2] = Mouse PK/PD study, tumor platinum levels by ICP-MS; set-up: species or system nude mice; settings: in vivo, iv, 4 mg/kg
Protocol: To examine the ability of compounds to accumulate in tumors, a murine cancer model was used. Animals were inoculated with 5×10^5 H460 […] lung cancer cells via subcutaneous injection to the flank. Tumors were allowed to reach an approximate volume of ˜500 mm^3. Animals were then randomized into treatment groups of 3 animals per time point and were dosed at 4 mg/kg. The 24 hour time point was used as a benchmark across compounds.
Tumors were excised from animals and dissolved in fuming nitric acid (60% w/w) by adding four parts nitric acid to 1 part tumor w/w and heating overnight at 60 degrees Centigrade. The resulting digest was diluted 1:10 in ICP-MS analysis buffer (1% nitric acid, 2% Triton x-100), and directly introduced into the ICP-MS unit by peristaltic pump. The end dilution factor for the samples as introduced to the ICP-MS was 50×.

Structure (SMILES)	Max DL, % [1] [%]	Max EE, % [1] [%]	encapsulation efficiency (in words) ([1]; statement on Table 4)	maximum drug loading (in words) ([1]; statement on Table 4)	platinum levels in the tumor, nanoparticle suspension versus free compound [2]
CCCCCC(=O)[O][Pt]([NH2])([NH2])([Cl])([Cl])[O]C(=O)CCCCC [reference compound]	0.55	2.8			
CC(C)(C)CC(C)(C)NC(=O)[O][Pt]([NH2])([NH2])([Cl])([Cl])[O]C(=O)NC(C)(C)CC(C)(C)C [Compound 29]	5.9	59	increased encapsulation efficiency	increased maximum drug loading	higher platinum levels in the tumors when the corresponding compound was dosed as a nanoparticle suspension than as a free compound
